This is an account of results in ChEMBL document CHEMBL1201862, “PubChem BioAssay data set” (2004).

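Grown in 96-well plates, cells were treated for 48 hours with each compound at five concentrations. Insufficient inhibition: endpoint recorded as highest concentration tested. GI50 is the concentration that inhibits growth by half.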 Active and inactive are the calls of the source. No stated cut-off is given here; in the data, active = GI50 up to about 1.1 µM and inactive = higher. Bounds are passed on as bounds.

Some test systems named below: SK-MEL-28; Hs-578T; MOLT-4; NCI/ADR-RES; IGROV-1; SK-MEL-5; MDA-N; HL-60; SF-268; KM12; SW-620; HOP-92; DU-145; OVCAR-5; K562; 786-0; CCRF-CEM; NCI-H522; MDA-MB-231; BT-549.
Holding throughout (experiment): NCI tumour cell line growth inhibition, 48 h

For `CN1CCCCC(C#N)(c2ccccc2)CC1` (stereo unspecified), the GI50 with SK-MEL-28, with Hs-578T, in the assay on MOLT-4, with NCI/ADR-RES, in the assay on IGROV-1 and in the assay on SK-MEL-5 was > 100 µM (inactive) in each case. For the same compound, the GI50 with MDA-N, with HL-60, with SF-268, with KM12, with SW-620 and in the assay on HOP-92 was > 100 µM (inactive) throughout. The GI50 with DU-145, in the assay on OVCAR-5, with K562, in the assay on 786-0 and in the assay with CCRF-CEM was > 100 µM (inactive) in each case.

For `C=C(C)[C@@]1(O[Si](C)(C)C)CCCC[C@@H]1CC(Sc1ccccc1)Sc1ccccc1`, the GI50 in the assay with SK-MEL-28 was 18.3 µM (inactive); in the assay on Hs-578T, 13.4 µM (inactive); in the assay with MOLT-4, 4.89 µM (inactive); in the assay on NCI/ADR-RES it was 13.8 µM (inactive); with IGROV-1, 15.6 µM (inactive); in the assay with SK-MEL-5, 16.3 µM (inactive). Besides, the GI50 was 15.4 µM (inactive) in the assay on MDA-N; 16.7 µM (inactive) with HL-60; 14.8 µM (inactive) in the assay with SF-268; 10.6 µM (inactive) in the assay with KM12; 14.1 µM (inactive) in the assay with SW-620; 12.7 µM (inactive) in the assay on HOP-92. In addition, the GI50 with DU-145 was 15 µM (inactive); in the assay with NCI-H522 it was 7.83 µM (inactive); in the assay on OVCAR-5 it was 16.2 µM (inactive); with MDA-MB-231, 16.8 µM (inactive); with K562 it was 12.7 µM (inactive); in the assay with 786-0 it was 14.6 µM (inactive). Besides, the GI50 in the assay on CCRF-CEM was 14.4 µM (inactive).

Turning to `CC12CC(c3ccccc3O1)C(C(=O)Nc1ccc(Cl)cc1Cl)C(=O)N2` (stereo unspecified), the GI50 with SK-MEL-28 was 72.8 µM (inactive); with Hs-578T, 25.2 µM (inactive); in the assay on MOLT-4, 19.1 µM (inactive); in the assay on NCI/ADR-RES, 36.8 µM (inactive); with IGROV-1, 24.2 µM (inactive); in the assay with SK-MEL-5, > 100 µM (inactive). The GI50 was > 100 µM (inactive) in the assay with MDA-N; 89.3 µM (inactive) in the assay on BT-549; 3.34 µM (inactive) in the assay on HL-60; 33.8 µM (inactive) in the assay on SF-268; > 100 µM (inactive) in the assay with KM12; 24.8 µM (inactive) in the assay with SW-620. Moreover, the GI50 with DU-145 was 27.6 µM (inactive); with NCI-H522, 56.8 µM (inactive); with OVCAR-5, 29.6 µM (inactive); with K562 it was 38.3 µM (inactive); with 786-0, 19.7 µM (inactive); in the assay with CCRF-CEM, 15 µM (inactive).

As for `CCCCCCCCCCCCOCC1(COCCCCCCCCCCCC)COC(c2ccc(N)cc2)OC1`, the GI50 in the assay on SK-MEL-28, in the assay on Hs-578T, in the assay on MOLT-4, with NCI/ADR-RES, with IGROV-1 and in the assay on SK-MEL-5 was > 100 µM (inactive) each time. The GI50 in the assay with MDA-N, with SF-268, in the assay with KM12, with SW-620, with DU-145 and with OVCAR-5 was > 100 µM (inactive) in each case. Also, the GI50 in the assay with MDA-MB-231, with K562 and in the assay with 786-0 was > 100 µM (inactive) throughout.

In the case of `CC(=O)c1cc(S(=O)(=O)c2ccc(O)c(C(C)=O)c2)ccc1O`, the GI50 with SK-MEL-28 was 38.7 µM (inactive); in the assay on MOLT-4, 25.4 µM (inactive); in the assay on NCI/ADR-RES it was 58.7 µM (inactive); with IGROV-1, > 100 µM (inactive); with SK-MEL-5 it was > 100 µM (inactive); with MDA-N, > 100 µM (inactive). In addition, the GI50 with BT-549 is 23.5 µM (inactive); with SF-268 it was 55.6 µM (inactive); with KM12, 44.9 µM (inactive); in the assay on SW-620, > 100 µM (inactive); with HOP-92 it was > 100 µM (inactive); in the assay on DU-145 it was > 100 µM (inactive). Moreover, the GI50 was > 100 µM (inactive) with NCI-H522; > 100 µM (inactive) in the assay on OVCAR-5; > 100 µM (inactive) with MDA-MB-231; 79.4 µM (inactive) in the assay with K562; 98.2 µM (inactive) in the assay with 786-0; 34.4 µM (inactive) in the assay with CCRF-CEM.

`[O-][S+](CCc1ccccc1)Nc1ccccc1` (stereo unspecified): the GI50 with SK-MEL-28 is > 100 µM (inactive); in the assay on Hs-578T, 0.0406 µM (active); in the assay with MOLT-4, > 100 µM (inactive); in the assay on NCI/ADR-RES it was 58.5 µM (inactive); in the assay with IGROV-1 it was > 100 µM (inactive); in the assay on SK-MEL-5 it was > 100 µM (inactive). Further, the GI50 in the assay on MDA-N, with HL-60, with SF-268, in the assay on KM12, in the assay with SW-620 and with DU-145 was > 100 µM (inactive) in each case. Also, the GI50 in the assay with NCI-H522, in the assay on OVCAR-5, with MDA-MB-231, with K562, with 786-0 and in the assay with CCRF-CEM was > 100 µM (inactive) each time.

Regarding `O=C(NCCC1CN(S(=O)(=O)C(F)(F)F)c2ccccc21)OCc1ccccc1` (stereo unspecified), the GI50 is > 100 µM (inactive) with SK-MEL-28; 76.6 µM (inactive) with Hs-578T; 59.2 µM (inactive) in the assay on MOLT-4; > 100 µM (inactive) in the assay on NCI/ADR-RES; > 100 µM (inactive) in the assay with IGROV-1; > 100 µM (inactive) in the assay on SK-MEL-5. Besides, the GI50 in the assay with BT-549 was > 100 µM (inactive); in the assay with SF-268, > 100 µM (inactive); in the assay on KM12, 83.4 µM (inactive); with SW-620, > 100 µM (inactive); in the assay on HOP-92, 77.4 µM (inactive); in the assay on DU-145, > 100 µM (inactive). Further, the GI50 in the assay with NCI-H522 was 57 µM (inactive); in the assay on OVCAR-5, > 100 µM (inactive); with MDA-MB-231, > 100 µM (inactive); in the assay with K562 it was 66.1 µM (inactive); in the assay with 786-0 it was > 100 µM (inactive); with CCRF-CEM, 38.6 µM (inactive).

Take `CN1N=C(c2ccccc2)c2cc(Cl)ccc2N=C1N/N=C/c1ccc(N(C)C)cc1`: the GI50 was > 100 µM (inactive) in the assay with SK-MEL-28; 62.7 µM (inactive) in the assay with MOLT-4; > 100 µM (inactive) in the assay on NCI/ADR-RES; > 100 µM (inactive) in the assay with IGROV-1; > 100 µM (inactive) in the assay on SK-MEL-5; > 100 µM (inactive) in the assay with MDA-N. Besides, the GI50 in the assay with BT-549 is > 100 µM (inactive); with HL-60, 39.6 µM (inactive); in the assay with SF-268, > 100 µM (inactive); in the assay on KM12 it was > 100 µM (inactive); in the assay on SW-620 it was > 100 µM (inactive); with DU-145, > 100 µM (inactive). Further, the GI50 is > 100 µM (inactive) with NCI-H522; 97.7 µM (inactive) with MDA-MB-231; 64.3 µM (inactive) with K562; > 100 µM (inactive) in the assay on 786-0; > 100 µM (inactive) in the assay on CCRF-CEM.

As to `CC(=O)OCC1OC(n2c3c(c(-c4ccco4)c(C#N)c2=S)CCCC3)C(OC(C)=O)C(OC(C)=O)C1OC(C)=O` (stereo unspecified), the GI50 with SK-MEL-28 was > 31.6 µM (inactive); in the assay with Hs-578T it was 29.4 µM (inactive); with MOLT-4, > 31.6 µM (inactive); in the assay with NCI/ADR-RES it was 17.1 µM (inactive); in the assay with IGROV-1, 21.9 µM (inactive); with SK-MEL-5, 16.3 µM (inactive). Besides, the GI50 is > 31.6 µM (inactive) with MDA-N; > 10 µM (inactive) in the assay on HL-60; 13.5 µM (inactive) with SF-268; > 31.6 µM (inactive) with KM12; > 100 µM (inactive) in the assay with SW-620; 7.36 µM (inactive) in the assay with HOP-92. In addition, the GI50 was > 31.6 µM (inactive) in the assay on DU-145; 16.3 µM (inactive) with NCI-H522; > 31.6 µM (inactive) with OVCAR-5; 29.6 µM (inactive) with MDA-MB-231; > 10 µM (inactive) in the assay on K562; 25.1 µM (inactive) in the assay on 786-0. For the same compound, the GI50 in the assay with CCRF-CEM was > 10 µM (inactive).

For the compound `c1cc(-c2ccc(-c3nc4ccc(C5=NCCN5)cc4s3)s2)ccc1C1=NCCN1`, the GI50 with SK-MEL-28 was 1.71 µM (inactive); with MOLT-4, 0.0968 µM (active); in the assay on NCI/ADR-RES it was 5.53 µM (inactive); in the assay with IGROV-1, 0.313 µM (active); in the assay with SK-MEL-5, 0.955 µM (active); in the assay on MDA-N, 0.723 µM (active). Further, the GI50 in the assay with BT-549 is 1.23 µM (inactive); in the assay with HL-60 it was 0.394 µM (active); with SF-268, 0.214 µM (active); in the assay with KM12, 0.565 µM (active); in the assay on SW-620, 1.02 µM (active); in the assay on HOP-92, 0.299 µM (active). For the same compound, the GI50 with DU-145 was 0.19 µM (active); in the assay on NCI-H522, 0.114 µM (active); with OVCAR-5, 0.444 µM (active); with MDA-MB-231 it was 0.234 µM (active); in the assay on K562 it was 0.82 µM (active); in the assay with 786-0 it was 0.156 µM (active). In the assay with CCRF-CEM, the GI50 is 0.0962 µM (active).

With `CC1C2Cc3ccc(O)cc3C1(C)CCN2C` (stereo unspecified), the GI50 in the assay on SK-MEL-28, in the assay on Hs-578T, in the assay with MOLT-4, with NCI/ADR-RES, in the assay with IGROV-1 and with SK-MEL-5 was > 100 µM (inactive) each time. Further, the GI50 in the assay on MDA-N, in the assay on HL-60, in the assay on SF-268, with KM12, in the assay with SW-620 and with DU-145 was > 100 µM (inactive) throughout. Also, the GI50 with NCI-H522, with OVCAR-5, in the assay on MDA-MB-231, in the assay with K562, in the assay with 786-0 and in the assay on CCRF-CEM was > 100 µM (inactive) throughout.
